This note sets out measurements from article PMC9231222 (Viruses, 2022).

Series [1] relates to BVDV. Briefly: Antiviral assay: inhibition of BVDV-induced cytopathogenicity in MDBK cells. Type of series: cell-based. To be noted: Bovine viral diarrhea virus isolates and strains, in Bos taurus, 72 h, read-out: BVDV EC50. (In general: Protection from cytopathic effect is a common read-out in antiviral testing.)
Series [2] in a line: Cytotoxicity assay (MTT) in mock-infected MDBK cells. The settings on record: cattle (Bos taurus); concentration reducing viability of mock-infected MDBK cells by 50%, MTT method. Type of series: cell-based.
The subject of series [3] is BVDV. The series can be described thus: Time of drug addition assay in BVDV-infected MDBK cells (plaque reduction titer). Type of series: cell-based, Bovine Viral Diarrhoea Virus (BVDV). The settings on record: along the viral replication cycle (between 2 and 14 h post-infection).
Series [4] concerns BVDV. The format is cell-based, Bovine Viral Diarrhoea Virus (BVDV). The settings on record: BVDV incubated with compound at 4 °C for 1 h, then used to infect cells.

“Also recorded” adds a separate entry of the source.

As usually defined, the EC50 is the midpoint of the concentration-response curve. Usually CC50 stands for the concentration giving 50% cytotoxicity. Lower therefore signals harm at low concentration. Usually melting point stands for the temperature, or range, at which the solid turns liquid. Compound `COc1cc(C(=O)Nc2ccc(-c3nc4cc(F)ccc4[nH]3)cc2)cc(OC)c1OC` [Compound 4c, N-(4-(5-Fluoro-1H-benzo[d]imidazol-2-yl)phenyl)-3,4,5-trimethoxybenzamide] displayed a melting point of 171.8 °C. The concentration giving a half-maximal response (EC50) in the series on BVDV [1] stood at 41 µM. Moreover, the CC50 in series [2] was > 100 µM.
For `O=C(Nc1ccc(-c2nc3cc(F)ccc3[nH]2)cc1)c1ccc(Cl)cc1` [Compound 4e, N-(4-(5-Fluoro-1H-benzo[d]imidazol-2-yl)phenyl)-4-chlorobenzamide], in that order: 138.6 °C, > 100 µM and > 100 µM.
The like results for `COc1cc(C(=O)Nc2ccc(-c3nc4cc(F)c(F)cc4[nH]3)cc2)cc(OC)c1OC` [Compound 5c, N-(4-(5,6-Difluoro-1H-benzo[d]imidazol-2-yl)phenyl)-3,4,5-trimethoxybenzamide] were, in that order, 285 to 287 °C, 1.4 µM and > 100 µM.
For the compound `C[C@@]1(O)[C@H](O)[C@@H](CO)O[C@H]1n1cnc2c(=O)[nH]c(N)nc21` [NM 108, 2′-C-methylguanosine, reference compound], the EC50 with BVDV [1] came to 1.5 µM. Further, in series [2], the 50% cytotoxic concentration (CC50) is > 100 µM.
With `O=C(Nc1ccc(-c2nc3cc(Cl)ccc3[nH]2)cc1)c1ccc([N+](=O)[O-])cc1` [Compound 2d, N-(4-(5-Chloro-1H-benzo[d]imidazol-2-yl)phenyl)-4-nitrobenzamide], the melting point was > 300 °C. For the same compound, the concentration giving a half-maximal response (EC50) in the series on BVDV [1] came to 1.9 µM. Besides, the CC50 in series [2] is > 100 µM.
For the compound `NC(=O)c1ncn([C@@H]2O[C@H](CO)[C@@H](O)[C@H]2O)n1` [Ribavirin, ribavirin, reference compound], the EC50 in the series with BVDV [1] is 18 µM. The CC50 in series [2] was > 100 µM.
`COc1cc(C(=O)Nc2ccc(-c3nc4cc(Cl)ccc4[nH]3)cc2)cc(OC)c1OC` [Compound 2c, N-(4-(5-Chloro-1H-benzo[d]imidazol-2-yl)phenyl)-3,4,5-trimethoxybenzamide] returned a melting point of 286 to 287 °C. Moreover, in the series with BVDV [1], the EC50 was determined as 0.09 µM. Also, the “antiviral activity, time of drug addition” value in the series on BVDV [3] is “consistent antiviral activity along the viral replication cycle; also recorded: detectable activity”. Also, in series [2], it took 45 µM to reach half-maximal cytotoxicity (CC50).
The compound `COc1cc(C(=O)Nc2ccc(-c3nc4cc(Cl)c(Cl)cc4[nH]3)cc2)cc(OC)c1OC` [Compound 3c, N-(4-(5,6-Dichloro-1H-benzo[d]imidazol-2-yl)phenyl)-3,4,5-trimethoxybenzamide] came in with a melting point of 150.6 °C. Besides, the concentration giving a half-maximal response (EC50) in the series with BVDV [1] stood at 1.3 µM. The CC50 in series [2] was found to be 28 µM.
In the case of `Cc1cc2nc(-c3ccc(NC(=O)c4ccc([N+](=O)[O-])cc4)cc3)[nH]c2cc1C` [Compound 7d, N-(4-(5,6-Dimethyl-1H-benzo[d]imidazol-2-yl)phenyl)-4-nitrobenzamide], the melting point was > 300 °C. Also, in the series with BVDV [1], the EC50 was > 100 µM. In addition, the CC50 in series [2] is > 100 µM.
Consider `Cc1ccc2[nH]c(-c3ccc(NC(=O)c4ccc(Cl)cc4)cc3)nc2c1` [Compound 6e, N-(4-(5-Methyl-1H-benzo[d]imidazol-2-yl)phenyl)-4-chlorobenzamide], for which the melting point was > 300 °C. The EC50 with BVDV [1] is > 100 µM. In series [2], the CC50 was > 100 µM.
Regarding `O=C(Nc1ccc(-c2nc3cc(F)ccc3[nH]2)cc1)c1ccc([N+](=O)[O-])cc1` [Compound 4d, N-(4-(5-Fluoro-1H-benzo[d]imidazol-2-yl)phenyl)-4-nitrobenzamide], the melting point was > 300 °C. Further, the EC50 in the series on BVDV [1] turned out to be 7.9 µM. The CC50 in series [2] is > 100 µM.
For `O=C(Nc1ccc(-c2nc3cc(Cl)c(Cl)cc3[nH]2)cc1)c1ccc([N+](=O)[O-])cc1` [Compound 3d, N-(4-(5,6-Dichloro-1H-benzo[d]imidazol-2-yl)phenyl)-4-nitrobenzamide], in that order: > 300 °C, 53 µM and > 100 µM.
Regarding `COc1cc(C(=O)Nc2ccc(-c3nc4cc(C)ccc4[nH]3)cc2)cc(OC)c1OC` [Compound 6c, N-(4-(5-Methyl-1H-benzo[d]imidazol-2-yl)phenyl)-3,4,5-trimethoxybenzamide], the EC50 in the series with BVDV [1] is 0.23 µM. The virucidal activity entry in the series on BVDV [4] is “almost comparable to the untreated but infected ones”. Besides, in series [2], the CC50 is > 100 µM.
Consider `O=C(Nc1ccc(-c2nc3cc(Cl)ccc3[nH]2)cc1)c1ccc(Cl)cc1` [Compound 2e, N-(4-(5-Chloro-1H-benzo[d]imidazol-2-yl)phenyl)-4-chlorobenzamide], for which the melting point is > 300 °C. Further, the half-maximal effective concentration (EC50) with BVDV [1] was > 100 µM. In series [2], the CC50 is > 100 µM.
For `O=C(Nc1ccc(-c2nc3cc(Cl)c(Cl)cc3[nH]2)cc1)c1ccc(Cl)cc1` [Compound 3e, N-(4-(5,6-Dichloro-1H-benzo[d]imidazol-2-yl)phenyl)-4-chlorobenzamide], the melting point was in the range of 161 to 162 °C. The half-maximal effective concentration (EC50) in the series on BVDV [1] is > 60 µM. Also, the CC50 in series [2] amounted to 60 µM.
For `O=C(Nc1ccc(-c2nc3ccccc3[nH]2)cc1)c1ccc(Cl)cc1` [Compound 1e, N-(4-(1H-Benzo[d]imidazol-2-yl)phenyl)-4-chlorobenzamide], in that order: 170.5 °C, > 100 µM and > 100 µM.
As for `COc1cc(C(=O)Nc2ccc(-c3nc4ccccc4[nH]3)cc2)cc(OC)c1OC` [Compound 1c, N-(4-(1H-Benzo[d]imidazol-2-yl)phenyl)-3,4,5-trimethoxybenzamide], in the series with BVDV [1], the EC50 worked out at 2.2 µM. The same compound showed a CC50 in series [2] of 28.5 µM.
`O=C(Nc1ccc(-c2nc3cc(F)c(F)cc3[nH]2)cc1)c1ccc(Cl)cc1` [Compound 5e, N-(4-(5,6-Difluoro-1H-benzo[d]imidazol-2-yl)phenyl)-4-chlorobenzamide]: the melting point is > 300 °C. Also, the EC50 in the series on BVDV [1] was > 100 µM. In addition, in series [2], the 50% cytotoxic concentration (CC50) was > 100 µM.
For the compound `COc1cc(C(=O)Nc2ccc(-c3nc4cc(C)c(C)cc4[nH]3)cc2)cc(OC)c1OC` [Compound 7c, N-(4-(5,6-Dimethyl-1H-benzo[d]imidazol-2-yl)phenyl)-3,4,5-trimethoxybenzamide], the melting point was in the range of 272 to 274 °C. In the series with BVDV [1], the concentration for a half-maximal effect (EC50) stood at 0.3 µM. Also, in the series with BVDV [4], the virucidal activity entry is recorded as “almost comparable to the untreated but infected ones”. Also, the CC50 in series [2] was > 100 µM.
Regarding `O=C(Nc1ccc(-c2nc3cc(F)c(F)cc3[nH]2)cc1)c1ccc([N+](=O)[O-])cc1` [Compound 5d, N-(4-(5,6-Difluoro-1H-benzo[d]imidazol-2-yl)phenyl)-4-nitrobenzamide], the melting point is > 300 °C. In the series on BVDV [1], the EC50 was 3.6 µM. The CC50 in series [2] was > 100 µM.
As to `Cc1ccc2nc(-c3ccc(NC(=O)c4ccc([N+](=O)[O-])cc4)cc3)[nH]c2c1` [Compound 6d, N-(4-(5-Methyl-1H-benzo[d]imidazol-2-yl)phenyl)-4-nitrobenzamide], the EC50 in the series with BVDV [1] was > 100 µM. For the same compound, the CC50 in series [2] was > 100 µM.
As for `Cc1cc2nc(-c3ccc(NC(=O)c4ccc(Cl)cc4)cc3)[nH]c2cc1C` [Compound 7e, N-(4-(5,6-Dimethyl-1H-benzo[d]imidazol-2-yl)phenyl)-4-chlorobenzamide], the melting point was > 300 °C. In addition, in the series with BVDV [1], the concentration for a half-maximal effect (EC50) is > 100 µM. In addition, in series [2], the CC50 was > 100 µM.
Consider `O=C(Nc1ccc(-c2nc3ccccc3[nH]2)cc1)c1ccc([N+](=O)[O-])cc1` [Compound 1d, N-(4-(1H-Benzo[d]imidazol-2-yl)phenyl)-4-nitrobenzamide], for which the melting point is > 300 °C. The EC50 in the series with BVDV [1] was > 100 µM. For the same compound, in series [2], the half-maximal cytotoxic concentration (CC50) was > 100 µM.
